Measurements reported in US10710994B2, “Oxadiazole transient receptor potential channel inhibitors” (Genentech, Inc., priority 2018, dated 2020).
Read-outs that look alike come from different tables or passages of the source.

Target: human TRPA1 channel (Homo sapiens (Human), UniProt O75762)
Assay: hTRPA1 CHO Ca2+ FLIPR Tetra assay: block of cinnamaldehyde induced calcium influx
Format: cell-based
Conditions: CHO cells expressing TRPA1, Hill coefficient fixed to 1.5
Method: CHO cells expressing TRPA1 were plated into 384-well plates, incubated overnight at 37° C., and loaded with BD calcium indicator dye for 1 hr at 37° C. followed by 15 minutes at room temperature. The assay buffer was Hank's Balanced Salt Solution (HBSS) containing 20 mM HEPES (pH readjusted to 7.4) along with 0.02% BSA.
Following dye load and plate cool down, compounds were added to the cells using FLIPR Tetra. Plates were then incubated with compounds for 10 minutes or 90 minutes at room temperature prior to adding agonist. Following this incubation, about an EC80 concentration of cinnamaldehyde […] was added to active the channels and block of cinnamaldehyde induced calcium influx was measured.
Fixing the Hill coefficient will generally reduce variability of the IC50 determination. The IC50 results were individually examined to make sure the MIN and MAX points were set correctly prior to validation of the results.

[1] = read-out: hTRPA1 IC50 10 min, 10 minutes incubation with compound before cinnamaldehyde (about EC80)
[2] = read-out: hTRPA1 IC50 90 min, 90 minutes incubation with compound before cinnamaldehyde (about EC80)
[3] = hTRPA1 IC50 10 min, 10 minutes incubation with compound before cinnamaldehyde (about EC80)
[4] = hTRPA1 IC50 90 min, 90 minutes incubation with compound before cinnamaldehyde (about EC80)

Sequence of human TRPA1 channel (O75762 whole entry): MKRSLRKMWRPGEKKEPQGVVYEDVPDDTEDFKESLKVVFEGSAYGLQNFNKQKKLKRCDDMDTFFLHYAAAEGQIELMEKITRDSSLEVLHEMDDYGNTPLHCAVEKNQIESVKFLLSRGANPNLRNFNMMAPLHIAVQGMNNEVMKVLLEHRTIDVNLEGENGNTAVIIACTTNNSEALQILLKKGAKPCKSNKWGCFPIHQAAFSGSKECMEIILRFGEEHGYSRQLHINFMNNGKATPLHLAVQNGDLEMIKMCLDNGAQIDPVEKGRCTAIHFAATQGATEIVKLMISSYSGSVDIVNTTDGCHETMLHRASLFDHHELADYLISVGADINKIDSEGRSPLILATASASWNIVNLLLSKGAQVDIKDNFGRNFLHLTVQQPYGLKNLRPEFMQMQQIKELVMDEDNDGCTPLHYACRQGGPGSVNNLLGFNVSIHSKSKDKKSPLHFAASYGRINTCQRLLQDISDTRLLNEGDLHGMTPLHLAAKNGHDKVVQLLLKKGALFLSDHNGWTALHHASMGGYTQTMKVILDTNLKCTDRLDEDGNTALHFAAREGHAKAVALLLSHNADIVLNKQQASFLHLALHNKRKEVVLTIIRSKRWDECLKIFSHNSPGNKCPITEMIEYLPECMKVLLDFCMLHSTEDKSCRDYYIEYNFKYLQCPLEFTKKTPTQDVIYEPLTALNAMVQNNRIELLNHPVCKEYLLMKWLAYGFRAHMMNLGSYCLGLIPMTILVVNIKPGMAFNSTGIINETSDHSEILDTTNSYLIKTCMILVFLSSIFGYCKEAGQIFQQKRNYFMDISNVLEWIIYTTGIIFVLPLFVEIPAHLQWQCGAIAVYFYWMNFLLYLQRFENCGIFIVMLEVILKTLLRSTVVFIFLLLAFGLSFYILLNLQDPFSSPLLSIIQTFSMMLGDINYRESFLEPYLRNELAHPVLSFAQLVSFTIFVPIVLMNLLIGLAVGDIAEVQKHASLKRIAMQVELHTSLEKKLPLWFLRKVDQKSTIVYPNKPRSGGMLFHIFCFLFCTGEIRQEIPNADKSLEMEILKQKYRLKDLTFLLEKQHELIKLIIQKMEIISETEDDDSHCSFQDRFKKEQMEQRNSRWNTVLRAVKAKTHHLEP

IC50 [1] [nM]	IC50 [2] [nM]	IC50 [3] [nM]	IC50 [4] [nM]	Compound
6.55	5.7	–	–	O=c1c2cccnc2ncn1Cc1nc([C@@H]2CO[C@@H](c3ccc(Cl)cc3)C2)no1 [Example 25, 3-((3-((3R,5R)-5-(4-chlorophenyl)tetrahydro-furan-3-yl)-1,2,4-oxadiazol-5-yl)methyl)pyrido[2,3-d]pyrimidin-4(3H)-one]
94.9	40	–	–	N#Cc1cnn2ncn(Cc3nc([C@@H]4CO[C@@H](c5ccc(Cl)cc5)C4)no3)c(=O)c12 [Example 115, 3-((3-((3R,5R)-5-(4-chlorophenyl)tetrahydro-furan-3-yl)-1,2,4-oxadiazol-5-yl)methyl)-4-oxo-3,4-dihydro-pyrazolo[5,1-f][1,2,4] triazine-5-carbonitrile]
81.7	40	–	–	Cc1cnn2ncn(Cc3nc([C@@H]4CO[C@@H](c5ccc6ncsc6c5)C4)no3)c(=O)c12 [Example 142, 3-((3-((3R,5R)-5-(benzo[d]thiazol-6-yl)tetrahydrofuran-3-yl)-1,2,4-oxadiazol-5-yl)methyl)-5-methylpyrazolo[5,1-f] [1,2,4]triazin-4(3H)-one]
10.7	1.2	–	–	Cc1cncc2ncn(Cc3nc([C@@H]4CO[C@@H](c5ccc(F)cc5)C4)no3)c(=O)c12 [Example 67, 3-((3-((3R,5R)-5-(4-fluorophenyl)tetrahydro-furan-3-yl)-1,2,4-oxadiazol-5-yl)methyl)-5-methylpyrido[3,4-d] pyrimidin-4(3H)-one]
126	19	–	–	Cn1c(N)nc2ncn(Cc3nc([C@@H]4CO[C@@H](c5ccc(F)cc5)C4)no3)c(=O)c21 [Example 22, 8-amino-1-((3-((3R,5R)-5-(4-fluorophenyl)tetrahydro-furan-3-yl)-1,2,4-oxadiazol-5-yl)methyl)-7-methyl-1,7-dihydro-6H-purin-6-one]
1560	930	–	–	Cn1cnc2ncn(Cc3nc([C@@H]4CO[C@@H](c5ccc(S(F)(F)(F)(F)F)cc5)C4)no3)c(=O)c21 [Example 86, 7-methyl-1-((3-((3R,5R)-5-(4-(pentafluoro-l6-sulfanyl)phenyl)tetrahydro-furan-3-yl)-1,2,4-oxadiazol-5-yl)methyl)-1,7-dihydro-6H-purin-6-one]
40.1	29	–	–	Cn1c(NCc2ccccn2)nc2ncn(Cc3nc([C@@H]4CO[C@@H](c5ccc(Cl)cc5)C4)no3)c(=O)c21 [Example 51]
2720	450	–	–	CN1CCc2c(ncn(Cc3nc([C@@H]4CO[C@@H](c5ccc(Cl)cc5)C4)no3)c2=O)C1 [Example 88, 3-((3-((3R,5R)-5-(4-chlorophenyl)tetrahydro-furan-3-yl)-1,2,4-oxadiazol-5-yl)methyl)-7-methyl-5,6,7,8-tetrahydropyrido [3,4-d]pyrimidin-4(3H)-one]
96.4	47	–	–	O=C1CCc2c(ncn(Cc3nc([C@@H]4CO[C@@H](c5ccc(Cl)cc5)C4)no3)c2=O)N1 [Example 118, 3-((3-((3R,5R)-5-(4-chlorophenyl)tetrahydro-furan-3-yl)-1,2,4-oxadiazol-5-yl)methyl)-5,8-dihydropyrido[2,3-d] pyrimidine-4,7(3H,6H)-dione]
–	–	76.9	57	Nc1nccc2c(=O)n(Cc3nc([C@@H]4CO[C@@H](c5ccc(Cl)cc5)C4)no3)cnc12 (racemic) [Example 108, 8-amino-3-[[3-[rac-(3R,5R)-5-(4-chlorophenyl)tetrahydro-furan-3-yl]-1,2,4-oxadiazol-5-yl]methyl]pyrido[3,4-d] pyrimidin-4-one]
20.6	15	–	–	Cc1ncn2ncn(Cc3nc([C@@H]4CO[C@@H](c5ccc(Cl)cc5)C4)no3)c(=O)c12 [Example 64, 3-((3-((3R,5R)-5-(4-chlorophenyl)tetrahydro-furan-3-yl)-1,2,4-oxadiazol-5-yl)methyl)-5-methylimidazo[1,5-f] [1,2,4]triazin-4(3H)-one]
19	12	–	–	Cn1cnc2ncn(Cc3nc([C@@H]4CO[C@@H](c5ccc(Cl)cc5)C4)no3)c2c1=O [Example 55, 7-((3-((3R,5R)-5-(4-chlorophenyl)tetrahydro-furan-3-yl)-1,2,4-oxadiazol-5-yl)methyl)-1-methyl-1,7-dihydro-6H-purin-6-one]
1.2	0.8	–	–	Cc1cnn2ncn(Cc3nc([C@@H]4CO[C@@H](c5ccc(Cl)cc5)C4)no3)c(=O)c12 [Example 48, 3-((3-((3R,5R)-5-(4-chlorophenyl)tetra-hydrofuran-3-yl)-1,2,4-oxadiazol-5-yl)methyl)-5-methylpyrazolo[5,1-f][1,2,4]triazin-4(3H)-one]
170	120	–	–	Cn1cnc2nc(N)n(Cc3nc([C@@H]4CO[C@@H](c5ccc(S(F)(F)(F)(F)F)cc5)C4)no3)c(=O)c21 [Example 74, 2-amino-7-methyl-1-((3-((3R,5R)-5-(4-(pentafluoro-16-sulfanyl)phenyl)tetrahydrofuran-3-yl)-1,2,4-oxadiazol-5-yl)methyl)-1,7-dihydro-6H-purin-6-one]
–	–	6.9	5.6	Cn1nnc2ccn(Cc3nc([C@@H]4CO[C@@H](c5ccc(F)cc5)C4)no3)c(=O)c21 (racemic) [Example 106, 3-methyl-5-[[3-[rac-(3R,5R)-5-(4-fluorophenyl)tetrahydro-furan-3-yl]-1,2,4-oxadiazol-5-yl]methyl] triazolo[4,5-c]pyridin-4-one]
–	–	153	140	Cc1cccc2nn(Cc3nc([C@@H]4CO[C@@H](c5ccc(Cl)cc5)C4)no3)c(=O)n12 (racemic) [Example 100, 5-methyl-2-[[3-[rac-(3R,5R)-5-(4-chlorophenyl)tetrahydro-furan-3-yl]-1,2,4-oxadiazol-5-yl]methyl]-[1,2,4]triazolo[4,3-a] pyridin-3-one]
21.3	14	–	–	Cc1cnn2ncn(Cc3nc([C@@H]4CO[C@@H](c5ccc(Cl)cn5)C4)no3)c(=O)c12 [Example 148, 3-((3-((3R,5R)-5-(5-chloropyridin-2-yl)tetrahydrofuran-3-yl)-1,2,4-oxadiazol-5-yl)methyl)-5-methylpyrazolo[5,1-f] [1,2,4]triazin-4(3H)-one]
15.1	5.6	–	–	Nc1nc2ncn(Cc3nc([C@@H]4CO[C@@H](c5ccc(Cl)cc5)C4)no3)c(=O)c2s1 [Example 129, 2-amino-6-((3-((3R,5R)-5-(4-chlorophenyl)tetrahydrofuran-3-yl)-1,2,4-oxadiazol-5-yl)methyl)thiazolo[4,5-d] pyrimidin-7(6H)-one]
–	–	123	14	Cc1nc2nc(N)n(C)c2c(=O)n1Cc1nc([C@@H]2CO[C@@H](c3ccc(Cl)cc3)C2)no1 (racemic) [Example 113, 8-amino-2,7-dimethyl-1-[[3-[rac-(3R,5R)-5-(4-chlorophenyl)tetrahydro-furan-3-yl]-1,2,4-oxadiazol-5-yl]methyl] purin-6-one]
126	17	–	–	Cn1cnc2nc(N)n(Cc3nc([C@@H]4CO[C@@H](c5ccc(Cl)cc5)C4)no3)c2c1=O [Example 123, 8-amino-7-((3-((3R,5R)-5-(4-chlorophenyl)tetrahydro-furan-3-yl)-1,2,4-oxadiazol-5-yl)methyl)-1-methyl-1,7-dihydro-6H-purin-6-one]
37.8	22	–	–	Cc1nc2nc(Cl)n(C)c2c(=O)n1Cc1nc([C@@H]2CO[C@@H](c3ccc(Cl)cc3)C2)no1 [Example 114, 8-chloro-1-((3-((3R,5R)-5-(4-chlorophenyl)tetrahydrofuran-3-yl)-1,2,4-oxadiazol-5-yl)methyl)-2,7-dimethyl-1,7-dihydro-6H-purin-6-one]
146	88	–	–	Cn1cnc2ncn(Cc3nc([C@@H]4CO[C@@H](c5ccc6ncsc6c5)C4)no3)c(=O)c21 [Example 53, 1-((3-((3R,5R)-5-(benzo[d]thiazol-6-yl)tetrahydrofuran-3-yl)-1,2,4-oxadiazol-5-yl)methyl)-7-methyl-1,7-dihydro-6H-purin-6-one]
–	180	–	–	Cc1nc(N2CC(CN)C2)n2ncn(Cc3nc([C@@H]4CO[C@@H](c5ccc(Cl)cc5)C4)no3)c(=O)c12 [Example 80, 7-(3-(aminomethyl)azetidin-1-yl)-3-((3-((3R,5R)-5-(4-chlorophenyl)tetrahydro-furan-3-yl)-1,2,4-oxadiazol-5-yl)methyl)-5-methylimidazo[5,1-f] [1,2,4]triazin-4(3H)-one]
10.8	3.8	–	–	Nc1nc2nccnc2n1Cc1nc([C@@H]2CO[C@@H](c3ccc(Cl)cc3)C2)no1 [Example 112, 1-((3-((3R,5R)-5-(4-chlorophenyl)tetrahydro-furan-3-yl)-1,2,4-oxadiazol-5-yl)methyl)-1H-imidazo[4,5-b] pyrazin-2-amine]
69	52	–	–	Cc1ccnc2ncn(Cc3nc([C@@H]4CO[C@@H](c5ccc(Cl)cc5)C4)no3)c(=O)c12 [Example 58, 3-((3-((3R,5R)-5-(4-chlorophenyl)tetrahydro-furan-3-yl)-1,2,4-oxadiazol-5-yl)methyl)-5-methylpyrido[2,3-d] pyrimidin-4(3H)-one]
